In patent US20230192617A1, “AZABICYCLIC(THIO)AMIDES AS FUNGICIDAL COMPOUNDS” (Bayer CropScience Aktiengesellschaft, priority 2020, published 2023) one finds chromatographic logP, pest or weed control and inhibition data, which are given here for 13 molecules.

Data set [1] in a line: Measurement of Log P values by HPLC on reversed phase columns (EEC directive 79/831 Annex V.A8). In kind it is physicochemical. The settings on record: reversed phase HPLC column, method [a]: LC-UV, acidic range, 0.1% formic acid in water and acetonitrile as eluent. An outline of the steps:
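Reversed-phase HPLC with UV detection per EEC 79/831 Annex V.A8, linear 10–95% acetonitrile gradient. Aqueous eluent: 0.1% formic acid (acidic), 0.001 M ammonium acetate (neutral), or 0.1% phosphoric acid (acidic); multiple values in one method joined by "+".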

For another data set, the system named is Alternaria brassicae. Briefly: In vivo preventive test on Alternaria brassicae (leaf spot on radish or cabbage). The settings on record: 500 ppm of active ingredient, preventive spray on radish or cabbage, evaluated 3 to 4 days after inoculation, read-out: efficacy. A digest of the protocol:
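Young radish or cabbage plants were sprayed with compound dissolved in DMSO/acetone/Tween 80 and diluted in water; controls received solvent only. Inoculation by spraying A. brassicae spore suspension 24 h later, then 3–4 days at 20 °C and 100% relative humidity.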

Data set [2] concerns Botrytis cinerea. Briefly: In vivo preventive test on Botrytis cinerea (grey mould). The conditions noted are these: 500 ppm of active ingredient, preventive spray on gherkin or cabbage, evaluated 4 to 5 days after inoculation, read-out: efficacy. An outline of the steps:
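Young gherkin or cabbage plants were sprayed with compound in DMSO/acetone/Tween 80 diluted in water, then inoculated 24 hours later with a B. cinerea spore suspension. Incubation lasted 4 to 5 days: gherkin at 17° C., 90% relative humidity; cabbage at 20° C., 100% relative humidity.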

For data set [3], the system named is Colletotrichum lindemuthianum. Briefly: B-8. Colletotrichum lindemuthianum in vitro cell test. In kind it is cell-based. The settings on record: 144 h, 20 ppm of active ingredient, 6 days incubation, liquid culture, absorbance, read-out: efficacy (inhibition of fungal growth). An outline of the steps: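 Spore suspension of C. lindemuthianum in liquid medium exposed to DMSO-solubilized compounds (final DMSO ≤1%) for 6 days. Mycelial growth read by absorbance, with inhibition calculated relative to compound-free control wells.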

A further data set deals with Sphaerotheca fuliginea. As to the kind of experiment: In vivo preventive test on Sphaerotheca fuliginea (powdery mildew on cucurbits). The conditions noted are these: Podosphaera fuliginea, 192 h; 500 ppm of active ingredient; preventive spray on gherkin; evaluated 8 days after inoculation; read-out: efficacy. A digest of the protocol: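 Young gherkin plants were sprayed with compound in DMSO/acetone/Tween 80 diluted in water. They were inoculated 24 h later with a spore suspension of Sphaerotheca fuliginea. Plants were then kept for 8 days at 20 °C and 70–80% relative humidity.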

Another data set deals with Alternaria alternata. As to the kind of experiment: Alternaria alternata in vitro cell test. In kind it is cell-based. The conditions noted are these: 120 h, 20 ppm of active ingredient, liquid culture, 5 days incubation, spectrometric measurement of mycelium growth, read-out: efficacy (inhibition of fungal growth). An outline of the steps:
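Liquid culture assay in which A. alternata spores in medium received DMSO-solubilized compound (final DMSO ≤1%). After 5 days, mycelium growth was measured spectrometrically. Inhibition was calculated against fungicide-free control wells.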

Data set [4] has as its system Pyrenophora teres. Briefly: In vivo preventive test on Pyrenophora teres (net blotch on barley). The conditions noted are these: 240 h, 500 ppm of active ingredient, preventive spray on barley, evaluated 10 days after inoculation, read-out: efficacy. How it is done: B-3. In Vivo Preventive Test on Pyrenophora Teres (Net Blotch on Barley) [table] The active ingredients were made soluble and homogenized in a mixture of Dimethyl sulfoxide/Acetone/Tween® 80 and then diluted in water to the desired concentration. The young plants of barley were treated by spraying the active ingredient prepared as described above. Control plants were treated only with an aqueous solution of Acetone/Dimethyl sulfoxide/Tween® 80. After 24 hours, the plants were contaminated by spraying the leaves with an aqueous suspension of Pyrenophora teres spores. The contaminated barley plants were incubated for 48 hours at 20° C. and at 100% relative humidity and then for 8 days at 20° C. and at 70-80% relative humidity.

Data set [5] has as its system Botrytis cinerea. As to the kind of experiment: B-11. Botrytis cinerea in vitro cell test. In kind it is cell-based. The settings on record: 144 h, 20 ppm of active ingredient, 6 days incubation, liquid culture, absorbance, read-out: efficacy (inhibition of fungal growth). A digest of the protocol: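 B. cinerea spores were grown in liquid culture with compound (DMSO ≤1% final). Mycelium growth was measured spectrometrically after 6 days, with inhibition taken as absorbance relative to untreated control wells.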

Data set [6] relates to Colletotrichum lindemuthianum. Briefly: In vivo preventive test on Colletotrichum lindemuthianum (leaf spot on bean). The conditions noted are these: 168 h, 500 ppm of active ingredient, preventive spray on bean, evaluated 7 days after inoculation, read-out: efficacy. An outline of the steps:
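Young bean plants sprayed with compound in DMSO/acetone/Tween 80 diluted in water; solvent-only controls. Inoculated 24 h later with C. lindemuthianum spore suspension, then kept 24 h at 20 °C/100% RH and 6 days at 20 °C/90% RH.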

For the next data set, the system named is Septoria tritici. Briefly: B-9. Septoria tritici in vitro cell test. The conditions noted are these: Zymoseptoria tritici, 168 h; 20 ppm of active ingredient; 7 days incubation; liquid culture, absorbance; read-out: efficacy (inhibition of fungal growth). In kind it is cell-based. As to the method: B-9. Septoria tritici In Vitro Cell Test [table] Fungicides were solubilized in DMSO and the solution used to prepare the required range of concentrations. The final concentration of DMSO used in the assay was ≤1%. A spore suspension of S. tritici was prepared and diluted to the desired spore density. Fungicides were evaluated for their ability to inhibit spore germination and mycelium growth in liquid culture assay. The compounds were added in the desired concentration to the culture medium with spores. After 7 days incubation, fungi-toxicity of compounds was determined by spectrometric measurement of mycelium growth. Inhibition of fungal growth was determined by comparing the absorbance values in wells containing the fungicides with the absorbance in control wells without fungicides.

The test system of data set [7] is Pyrenophora teres. Briefly: B-10. Pyrenophora teres in vitro cell test. In kind it is cell-based. The settings on record: 144 h, 20 ppm of active ingredient, 6 days incubation, liquid culture, absorbance, read-out: efficacy (inhibition of fungal growth). A digest of the protocol: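 Liquid-culture assay on a P. teres spore suspension with compounds added to the medium from DMSO solutions, final DMSO ≤1%. Mycelium growth read spectrometrically after 6 days. Inhibition calculated from absorbance against untreated control wells.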

For orientation: chromatographic logP means lipophilicity estimated from chromatographic retention. A higher chromatographic logP goes with a more lipophilic compound. For orientation: inhibition means the change of the read-out against control, counted positive when it falls. Molecule `O=C(NC[C@H](F)c1ccc(C2CC2)cc1Cl)c1c(Oc2cccc(Cl)c2)nnc2ccccc12` (racemic) [I-054] returned a chromatographic logP in data set [1] of 4.47. Moreover, the pest or weed control at 500 ppm in the data set with Alternaria brassicae fell in the range of 90 to 100%; in the data set on Botrytis cinerea [2] it was 90 to 100%; in the data set with Sphaerotheca fuliginea, 70 to 79%; in the data set on Pyrenophora teres [4], 80 to 89%; in data set [6] it was 90 to 100%. For the same molecule, the inhibition at 20 ppm (in data set [3]; in the data set on Alternaria alternata; in the data set on Botrytis cinerea [5]) was 90 to 100% in each case.
In data set [1], `O=C(NCC(F)c1ccc(Cl)cc1Cl)c1c(Oc2cccc(C(F)F)c2)nnc2c1CCCC2` (stereo not drawn) [I-177] registered a chromatographic logP of 3.63. Moreover, the inhibition at 20 ppm (in [3]; in the data set on Alternaria alternata; with Septoria tritici; in the data set on Botrytis cinerea [5]; in the data set on Pyrenophora teres [7]) was 90 to 100% in each case.
Regarding `Cc1ccc(C(F)CNC(=O)c2c(Oc3cccc(Cl)c3F)nnc3c2CCC3)c(C)c1` (stereo not drawn) [I-236], the chromatographic logP in data set [1] was 3.73. The pest or weed control at 500 ppm (in the data set with Alternaria brassicae; with Botrytis cinerea [2]; in the data set with Sphaerotheca fuliginea; with Pyrenophora teres [4]; in data set [6]) was 90 to 100% each time. The inhibition at 20 ppm is 80 to 89% in the data set with Alternaria alternata, 90 to 100% with Botrytis cinerea [5] and 90 to 100% in the data set on Pyrenophora teres [7].
On to `Cc1ccc(CCNC(=O)c2c(Oc3cccc(C(F)(F)F)c3)cnc3ccoc23)c(C)c1` [I-068], for which the chromatographic logP in data set [1] worked out at 4.04. Further, the pest or weed control at 500 ppm lay within 90 to 100% in the data set on Alternaria brassicae; 90 to 100% in the data set with Botrytis cinerea [2]; 90 to 100% in the data set with Sphaerotheca fuliginea; 80 to 89% in the data set with Pyrenophora teres [4]; 90 to 100% in [6]. The inhibition at 20 ppm (in [3]; in the data set on Alternaria alternata; with Botrytis cinerea [5]; with Pyrenophora teres [7]) was 90 to 100% each time.
With `Cc1cc(Cl)ccc1[C@@H](F)CNC(=O)c1c(Oc2cccc(Cl)c2)nnc2ccccc12` (racemic) [I-053], the chromatographic logP in [1] was found to be 4.23. For the same molecule, the pest or weed control at 500 ppm in the data set on Alternaria brassicae was in the range of 90 to 100%; with Botrytis cinerea [2] it was 90 to 100%; in the data set with Sphaerotheca fuliginea it was 80 to 89%; in the data set with Pyrenophora teres [4], 70 to 79%; in data set [6], 90 to 100%. Further, the inhibition at 20 ppm (in [3]; in the data set on Alternaria alternata; in the data set on Botrytis cinerea [5]) was 90 to 100% in each case.
For the molecule `Cc1ccc(C(F)(F)CNC(=O)c2c(Oc3cccc(Br)c3)cnc3ccccc23)c(C)c1` [I-226], the chromatographic logP in [1] was 4.48. Besides, the pest or weed control at 500 ppm fell in the range of 90 to 100% in the data set with Alternaria brassicae; 90 to 100% with Botrytis cinerea [2]; 90 to 100% in the data set with Sphaerotheca fuliginea; 70 to 79% in the data set on Pyrenophora teres [4]; 90 to 100% in data set [6]. Further, the inhibition at 20 ppm (in [3]; with Alternaria alternata; in the data set on Botrytis cinerea [5]; in the data set with Pyrenophora teres [7]) was 90 to 100% in each case.
`Cc1ccc(C(F)(F)CNC(=O)c2c(Oc3cccc(C4CC4)c3)cnc3ccccc23)c(C)c1` [I-223]: the chromatographic logP in data set [1] is 4.59. Moreover, the pest or weed control at 500 ppm in the data set with Alternaria brassicae is 90 to 100%; in the data set with Botrytis cinerea [2], 90 to 100%; in the data set with Sphaerotheca fuliginea it was 90 to 100%; with Pyrenophora teres [4] it was 80 to 89%; in data set [6], 90 to 100%. For the same molecule, the inhibition at 20 ppm (in [3]; with Alternaria alternata; in the data set with Botrytis cinerea [5]; in the data set on Pyrenophora teres [7]) was 90 to 100% in each case.
Take `Cc1cc(Cl)ccc1C(F)(F)CNC(=O)c1c(Oc2cccc(C(F)F)c2)nnc2c1CCCC2` [I-163]: the inhibition at 20 ppm (in [3]; in the data set with Alternaria alternata; in the data set with Septoria tritici; in the data set on Botrytis cinerea [5]; in the data set on Pyrenophora teres [7]) was 90 to 100% each time.
For `Cc1ccc(C(F)(F)CNC(=O)c2c(Oc3cccc(C4CC4)c3F)cnc3ccccc23)c(C)c1` [I-224], the chromatographic logP in data set [1] worked out at 4.63. In addition, the pest or weed control at 500 ppm is 80 to 89% in the data set on Alternaria brassicae; 90 to 100% in the data set on Botrytis cinerea [2]; 90 to 100% with Sphaerotheca fuliginea; 70 to 79% in the data set on Pyrenophora teres [4]; 90 to 100% in data set [6]. In addition, the inhibition at 20 ppm (in data set [3]; in the data set with Alternaria alternata; with Botrytis cinerea [5]; with Pyrenophora teres [7]) was 90 to 100% throughout.
`Cc1cc(Br)ccc1[C@@H](F)CNC(=O)c1c(Oc2cccc(Cl)c2)nnc2ccccc12` (racemic) [I-055]: the chromatographic logP in [1] came out at 4.33. In addition, the pest or weed control at 500 ppm in the data set on Alternaria brassicae lay in the range of 90 to 100%; with Botrytis cinerea [2] it was 90 to 100%; with Sphaerotheca fuliginea, 90 to 100%; in the data set on Pyrenophora teres [4], 80 to 89%; in data set [6], 70 to 79%. In addition, the inhibition at 20 ppm (in [3]; in the data set with Alternaria alternata; in the data set on Botrytis cinerea [5]) was 90 to 100% in each case.
With `Cc1ccc(C(F)(F)CNC(=O)c2c(Oc3cccc(C(F)(F)F)c3)cnc3c2OCCO3)c(C)c1` [I-109], the chromatographic logP in [1] came to 3.71. Also, the pest or weed control at 500 ppm (in the data set on Alternaria brassicae; in the data set with Botrytis cinerea [2]; in the data set with Sphaerotheca fuliginea; with Pyrenophora teres [4]; in data set [6]) was 90 to 100% each time. Moreover, the inhibition at 20 ppm (in [3]; with Alternaria alternata) was 90 to 100% each time.
The molecule `Cc1ccc(C(F)(F)CNC(=O)c2c(Oc3cccc(Cl)c3)nnc3ccccc23)c(C)c1` [I-024] came in with a chromatographic logP in data set [1] of 4.2. The pest or weed control at 500 ppm in the data set on Alternaria brassicae fell in the range of 90 to 100%; in the data set with Botrytis cinerea [2], 90 to 100%; in the data set with Sphaerotheca fuliginea, 90 to 100%; in the data set with Pyrenophora teres [4], 70 to 79%; in [6], 90 to 100%. In addition, the inhibition at 20 ppm (in data set [3]; with Alternaria alternata) was 90 to 100% throughout.
For the molecule `O=C(NC[C@H](F)c1ccc(Br)cc1Cl)c1c(Oc2cccc(C(F)F)c2)nnc2ccccc12` (racemic) [I-029], the chromatographic logP in data set [1] came to 4.01. Besides, the pest or weed control at 500 ppm with Alternaria brassicae was in the range of 90 to 100%; in the data set on Botrytis cinerea [2], 90 to 100%; in the data set with Sphaerotheca fuliginea, 70 to 79%; with Pyrenophora teres [4], 70 to 79%; in data set [6] it was 90 to 100%. The inhibition at 20 ppm (in data set [3]; in the data set with Alternaria alternata) was 90 to 100% throughout.
